Values quoted from earlier work as cited in patent US9309575B2, “Mutant strains of Escherichia coli, a method of testing potential antibacterial agents using said strains as well as a testing kit” (Instytut Biologii Doswiadczalnej IM. M. Nenckiego Pan, priority 2010, dated 2016).

Test system: gram-negative bacteria
Conditions: at concentrations of 1-10 μg/ml

Substance: polymyxin B nonapeptide [PMBN]
- biocidal properties: does not exhibit biocidal properties
